Laboratory results: PubChem BioAssay AID1963973 (Molecular Pharmacology Branch, DTP, NCI, 2024)

Test system: 883617-216-R-J1-PDC tumor spheroids, viability
Assay: Anticancer human tumor 883617-216-R-J1-PDC patient-derived bladder carcinoma cell line growth inhibition [PI3K]
Conditions: spheroids with HUVEC and MSC; for IC50: curve of first compound; for viability, T/C: stronger effect = lower value
How it was run: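 Targeted small molecules plus PI3K inhibitors, half-log dose series from Cmax (default top 10 microM), were applied to heterotypic spheroids of cancer cells with HUVEC and MSCs. Viability indicated growth inhibition.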

[1] = second compound 0.00316 µM, first compound 0.0316 µM
[2] = second compound 0.00316 µM, first compound 0.1 µM
[3] = second compound 0.00316 µM, first compound 0.316 µM
[4] = second compound 0.00316 µM, first compound 1 µM
[5] = second compound 0.00316 µM, first compound 3.16 µM
[6] = second compound 0.00316 µM, first compound 10 µM
[7] = second compound 0.01 µM, first compound 0.0316 µM
[8] = second compound 0.01 µM, first compound 0.1 µM
[9] = second compound 0.01 µM, first compound 0.316 µM
[10] = second compound 0.01 µM, first compound 1 µM
[11] = second compound 0.01 µM, first compound 3.16 µM
[12] = second compound 0.01 µM, first compound 10 µM
[13] = second compound 0.0316 µM, first compound 0.0316 µM
[14] = second compound 0.0316 µM, first compound 0.1 µM
[15] = second compound 0.0316 µM, first compound 0.316 µM
[16] = second compound 0.0316 µM, first compound 1 µM
[17] = second compound 0.0316 µM, first compound 3.16 µM
[18] = second compound 0.0316 µM, first compound 10 µM
[19] = second compound 0.1 µM, first compound 0.0316 µM
[20] = second compound 0.1 µM, first compound 0.1 µM
[21] = second compound 0.1 µM, first compound 0.316 µM
[22] = second compound 0.1 µM, first compound 1 µM
[23] = second compound 0.1 µM, first compound 3.16 µM
[24] = second compound 0.1 µM, first compound 10 µM
[25] = second compound 0.316 µM, first compound 0.0316 µM
[26] = second compound 0.316 µM, first compound 0.1 µM
[27] = second compound 0.316 µM, first compound 0.316 µM
[28] = second compound 0.316 µM, first compound 1 µM
[29] = second compound 0.316 µM, first compound 3.16 µM
[30] = second compound 0.316 µM, first compound 10 µM
[31] = second compound 1 µM, first compound 0.0316 µM
[32] = second compound 1 µM, first compound 0.1 µM
[33] = second compound 1 µM, first compound 0.316 µM
[34] = second compound 1 µM, first compound 1 µM
[35] = second compound 1 µM, first compound 3.16 µM
[36] = second compound 1 µM, first compound 10 µM
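Note: spheroids exposed to agents for 7 days before the viability read.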

Q: Which results are given for `CC1(C)CCC(CN2CCN(c3ccc(C(=O)NS(=O)(=O)c4ccc(NCC5CCOCC5)c([N+](=O)[O-])c4)c(Oc4cnc5[nH]ccc5c4)c3)CC2)=C(c2ccc(Cl)cc2)C1` + COc1c(OCCCN2CCOCC2)ccc2c3n(c(=NC(=O)c4cnc(N)nc4)nc12)CCN3?
A: IC50 (second compound 0.00316 µM): > 10 µM; IC50 (second compound 0.01 µM): > 10 µM; IC50 (second compound 0.0316 µM): < 0.0316 µM; IC50 (second compound 0.1 µM): < 0.0316 µM; IC50 (second compound 0.316 µM): < 0.0316 µM; IC50 (second compound 1 µM): < 0.0316 µM; viability, T/C [1]: 86.9%; viability, T/C [2]: 84.3%; viability, T/C [3]: 77.5%; viability, T/C [4]: 83.7%; viability, T/C [5]: 82.7%; viability, T/C [6]: 110%; viability, T/C [7]: 68%; viability, T/C [8]: 67.9%; viability, T/C [9]: 66.5%; viability, T/C [10]: 68.5%; viability, T/C [11]: 66.1%; viability, T/C [12]: 58.2%; viability, T/C [13]: 32.3%; viability, T/C [14]: 35.8%; viability, T/C [15]: 40.5%; viability, T/C [16]: 39.1%; viability, T/C [17]: 35.3%; viability, T/C [18]: 35.5%; viability, T/C [19]: 27.5%; viability, T/C [20]: 15.1%; viability, T/C [21]: 17%; viability, T/C [22]: 17.8%; viability, T/C [23]: 15.2%; viability, T/C [24]: 13.1%; viability, T/C [25]: 6.5%; viability, T/C [26]: 4.66%; viability, T/C [27]: 5.31%; viability, T/C [28]: 5.04%; viability, T/C [29]: 4.63%; viability, T/C [30]: 4.02%; viability, T/C [31]: 3.29%; viability, T/C [32]: 2.86%; viability, T/C [33]: 2.77%; viability, T/C [34]: 3.15%; viability, T/C [35]: 2.53%; viability, T/C [36]: 2.82%

Q: What does the source list for `C[C@@H](NC(=O)c1ncnc(N)c1Cl)c1ncc(C(=O)Nc2cc(C(F)(F)F)c(Cl)cn2)s1` + COc1c(OCCCN2CCOCC2)ccc2c3n(c(=NC(=O)c4cnc(N)nc4)nc12)CCN3?
A: IC50 (second compound 0.00316 µM): > 10 µM; IC50 (second compound 0.01 µM): > 10 µM; IC50 (second compound 0.0316 µM): < 0.0316 µM; IC50 (second compound 0.1 µM): < 0.0316 µM; IC50 (second compound 0.316 µM): < 0.0316 µM; IC50 (second compound 1 µM): < 0.0316 µM; viability, T/C [1]: 86.2%; viability, T/C [2]: 83.1%; viability, T/C [3]: 86.1%; viability, T/C [4]: 96%; viability, T/C [5]: 70.9%; viability, T/C [6]: 59.9%; viability, T/C [7]: 88.2%; viability, T/C [8]: 71.5%; viability, T/C [9]: 72.5%; viability, T/C [10]: 87.5%; viability, T/C [11]: 71.5%; viability, T/C [12]: 56.6%; viability, T/C [13]: 38.3%; viability, T/C [14]: 41.2%; viability, T/C [15]: 42.1%; viability, T/C [16]: 50.4%; viability, T/C [17]: 40.8%; viability, T/C [18]: 30.9%; viability, T/C [19]: 19%; viability, T/C [20]: 20.6%; viability, T/C [21]: 23.1%; viability, T/C [22]: 22%; viability, T/C [23]: 20.5%; viability, T/C [24]: 14.5%; viability, T/C [25]: 7.26%; viability, T/C [26]: 7.17%; viability, T/C [27]: 7.53%; viability, T/C [28]: 7.56%; viability, T/C [29]: 9.7%; viability, T/C [30]: 5.01%; viability, T/C [31]: 5.51%; viability, T/C [32]: 5.13%; viability, T/C [33]: 5.48%; viability, T/C [34]: 5.61%; viability, T/C [35]: 5.29%; viability, T/C [36]: 2.13%

Q: How did the IC50 (second compound 0.00316 µM) turn out when `Cn1ncnc1[C@H]1c2n[nH]c(=O)c3cc(F)cc(c23)N[C@@H]1c1ccc(F)cc1` + COc1c(OCCCN2CCOCC2)ccc2c3n(c(=NC(=O)c4cnc(N)nc4)nc12)CCN3 was run?
A: Its IC50 is greater than 0.1 µM.

Q: What about the IC50 (second compound 0.01 µM) of the same compound?
A: The IC50 was greater than 0.1 µM.

Q: And the IC50 (second compound 0.0316 µM)?
A: Its IC50 is less than 0.000316 µM.

Q: What about the IC50 (second compound 0.1 µM) of the same compound?
A: Its IC50 is less than 0.000316 µM.

Q: And the IC50 (second compound 0.316 µM)?
A: Its IC50 is less than 0.000316 µM.

Q: And the IC50 (second compound 1 µM)?
A: The IC50 was less than 0.000316 µM.

Q: And the viability, T/C (second compound 0.00316 µM, first compound 0.000316 µM)?
A: Its viability, T/C is 88.1%.

Q: What about the viability, T/C (second compound 0.00316 µM, first compound 0.001 µM) of the same compound?
A: The viability, T/C was 79.5%.

Q: What about the viability, T/C (second compound 0.00316 µM, first compound 0.00316 µM) of the same compound?
A: The viability, T/C was 87.2%.

Q: And the viability, T/C (second compound 0.00316 µM, first compound 0.01 µM)?
A: Its viability, T/C is 75.3%.

Q: What about the viability, T/C [1] of the same compound?
A: The viability, T/C was 67.2%.

Q: And the viability, T/C [2]?
A: The viability, T/C was 54.6%.

Q: What about the viability, T/C (second compound 0.01 µM, first compound 0.000316 µM) of the same compound?
A: Its viability, T/C is 63.2%.

Q: And the viability, T/C (second compound 0.01 µM, first compound 0.001 µM)?
A: The viability, T/C was 64.7%.

Q: And the viability, T/C (second compound 0.01 µM, first compound 0.00316 µM)?
A: Its viability, T/C is 64.9%.

Q: And the viability, T/C (second compound 0.01 µM, first compound 0.01 µM)?
A: The viability, T/C was 86.1%.

Q: And the viability, T/C [7]?
A: Its viability, T/C is 54.8%.

Q: And the viability, T/C [8]?
A: Its viability, T/C is 45%.

Q: What about the viability, T/C (second compound 0.0316 µM, first compound 0.000316 µM) of the same compound?
A: Its viability, T/C is 31.3%.

Q: And the viability, T/C (second compound 0.0316 µM, first compound 0.001 µM)?
A: Its viability, T/C is 36.6%.

Q: And the viability, T/C (second compound 0.0316 µM, first compound 0.00316 µM)?
A: Its viability, T/C is 35.3%.

Q: And the viability, T/C (second compound 0.0316 µM, first compound 0.01 µM)?
A: Its viability, T/C is 33.9%.

Q: And the viability, T/C [13]?
A: The viability, T/C was 39.3%.

Q: And the viability, T/C [14]?
A: The viability, T/C was 29%.

Q: And the viability, T/C (second compound 0.1 µM, first compound 0.000316 µM)?
A: Its viability, T/C is 16%.

Q: What about the viability, T/C (second compound 0.1 µM, first compound 0.001 µM) of the same compound?
A: The viability, T/C was 17.7%.

Q: And the viability, T/C (second compound 0.1 µM, first compound 0.00316 µM)?
A: Its viability, T/C is 16.2%.

Q: And the viability, T/C (second compound 0.1 µM, first compound 0.01 µM)?
A: Its viability, T/C is 15.3%.

Q: What about the viability, T/C [19] of the same compound?
A: Its viability, T/C is 15.6%.

Q: And the viability, T/C [20]?
A: The viability, T/C was 14.1%.

Q: And the viability, T/C (second compound 0.316 µM, first compound 0.000316 µM)?
A: Its viability, T/C is 5.21%.

Q: And the viability, T/C (second compound 0.316 µM, first compound 0.001 µM)?
A: Its viability, T/C is 5.06%.

Q: And the viability, T/C (second compound 0.316 µM, first compound 0.00316 µM)?
A: Its viability, T/C is 5.56%.

Q: What about the viability, T/C (second compound 0.316 µM, first compound 0.01 µM) of the same compound?
A: Its viability, T/C is 5.19%.

Q: What about the viability, T/C [25] of the same compound?
A: Its viability, T/C is 5.74%.

Q: What about the viability, T/C [26] of the same compound?
A: Its viability, T/C is 3.68%.

Q: And the viability, T/C (second compound 1 µM, first compound 0.000316 µM)?
A: Its viability, T/C is 4.93%.

Q: And the viability, T/C (second compound 1 µM, first compound 0.001 µM)?
A: Its viability, T/C is 4.65%.

Q: And the viability, T/C (second compound 1 µM, first compound 0.00316 µM)?
A: The viability, T/C was 3.52%.

Q: What about the viability, T/C (second compound 1 µM, first compound 0.01 µM) of the same compound?
A: The viability, T/C was 2.9%.

Q: And the viability, T/C [31]?
A: Its viability, T/C is 3.13%.

Q: What about the viability, T/C [32] of the same compound?
A: The viability, T/C was 2.73%.
